Source: patent US12043613B2, “Inhibitors of SARM1” (Disarm Therapeutics, Inc., priority 2020, dated 2024)
Like-named read-outs stand apart in the source and are kept apart here.

Key:
[1] = biological target: T1, SARM1 (ARM-SAM-TIR, full length SARM1) (Homo sapiens, UniProt Q6SZW1); conditions: read-out: SARM1 IC50; ARM-SAM-TIR lysate 5 μg/mL from NRK1-HEK293T cells, 2 h pre-incubation, 5 uM NAD+, 2 hr room temperature
T1 sequence (Q6SZW1 with tags, fused parts or gaps): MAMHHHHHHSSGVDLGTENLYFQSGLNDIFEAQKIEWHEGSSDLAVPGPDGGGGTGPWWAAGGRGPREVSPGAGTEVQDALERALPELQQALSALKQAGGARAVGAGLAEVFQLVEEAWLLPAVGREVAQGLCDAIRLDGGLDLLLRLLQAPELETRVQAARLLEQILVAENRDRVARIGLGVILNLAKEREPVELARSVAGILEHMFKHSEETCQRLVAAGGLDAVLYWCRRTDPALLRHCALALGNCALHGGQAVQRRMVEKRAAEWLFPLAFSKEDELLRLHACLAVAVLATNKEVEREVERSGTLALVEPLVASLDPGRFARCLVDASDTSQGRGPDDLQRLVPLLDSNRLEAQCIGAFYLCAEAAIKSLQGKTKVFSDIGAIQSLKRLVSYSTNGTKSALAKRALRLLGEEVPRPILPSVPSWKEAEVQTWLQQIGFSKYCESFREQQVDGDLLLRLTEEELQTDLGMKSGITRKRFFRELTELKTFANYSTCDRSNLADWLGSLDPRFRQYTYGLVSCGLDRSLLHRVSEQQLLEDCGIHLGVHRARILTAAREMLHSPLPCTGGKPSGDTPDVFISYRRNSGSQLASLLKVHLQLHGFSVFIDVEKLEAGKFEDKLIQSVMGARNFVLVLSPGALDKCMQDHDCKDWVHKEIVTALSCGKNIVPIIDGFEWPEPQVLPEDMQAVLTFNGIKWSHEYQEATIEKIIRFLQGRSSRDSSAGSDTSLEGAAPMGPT
Description: (§1) This assay makes use of full length SARM1, which encompasses the ARM, SAM and TIR domains.
Preparation of ARM-SAM-TIR lysate (STL)
(§2) NRK1-HEK293T cells were seeded onto 150 cm^2 plates at 20×10^6 cells per plate. The next day, the cells were transfected with 15 g ARM-SAM-TIR expression plasmid, SEQ ID NO: 1.
(§3) The cultures were supplemented with 1 mM NR at time of transfection to minimize toxicity from ARM-SAM-TIR overexpression. Forty-eight hours after transfection, cells were harvested, pelleted by centrifugation at 1,000 rpm (Sorvall ST 16R centrifuge, Thermo Fisher), and washed once with cold PBS (0.01 M phosphate buffered saline NaCl 0.138 M; KCl 0.0027 M; pH 7.4). The cells were resuspended in PBS with protease inhibitors (cOmplete™ protease inhibitor cocktail, Roche product #11873580001) and cell lysates were prepared by sonication (Branson Sonifer 450, output=3, 20 episodes of stroke). The lysates were centrifuged (12,000×g for 10 min at 4° C.) to remove cell debris and the supernatants (containing ARM-SAM-TIR protein) were stored at −80° C. for later use in the in vitro ARM-SAM-TIR NADase assay (see below). Protein concentration was determined by the Bicinchoninic (BCA) method and used to normalize lysate concentrations.
(§4) ARM-SAM-TIR IC50 assay of Formula I compounds.
(§5) The enzymatic assay was performed in a 384-well polypropylene plate in Dulbecco's PBS buffer in a final assay volume of 20 μL. ARM-SAM-TIR lysate with a final concentration of 5 μg/mL was pre-incubated with the respective compound at 1% DMSO final assay concentration over 2h at room temperature. The reaction was initiated by addition of 5 uM final assay concentration of NAD+ as substrate. After a 2 hr room temperature incubation, the reaction was terminated with 40 μL of stop solution of 7.5% trichloroactetic acid in acetonitrile. The NAD+ and ADPR concentrations were analyzed by a RapidFire High Throughput Mass Spectrometry System (Agilent Technologies, Santa Clara, Calif.) using an API4000 triple quadrupole mass spectrometer (AB Sciex Framingham, Mass.).

[2] = biological target: T1, SARM1 (ARM-SAM-TIR, full length SARM1); test: biochemical; conditions: SARM1 IC50 (nM), ARM-SAM-TIR lysate 5 μg/mL from NRK1-HEK293T cells, 2 h pre-incubation, 5 uM NAD+, 2 hr room temperature
Description: as §1
Preparation of ARM-SAM-TIR lysate (STL)
as §2, §3, §4, §5

Row | Compound | IC50 [1] [nM] | IC50 [2] [nM]
1 | O=C1C(Cc2ccc(Cl)cc2)CCCN1c1nnc(-c2ccncc2)[nH]1 (single isomer, unassigned) [I-5* (peak 2)] | < 50 | 
2 | O=C1C(Cc2ccc(F)c(F)c2)CCN1c1cc(-c2ccncc2)n[nH]1 (single isomer, unassigned) [I-16* (peak 2)] | < 50 | 
3 | O=C1C(Cc2ccc(Cl)cc2)CCCN1c1cc(-c2ccncc2)n[nH]1 (single isomer, unassigned) [I-19* (peak 2)] | < 50 | 
4 | N#Cc1ccc(CC2CCN(c3cc(-c4ccncc4)n[nH]3)C2=O)cc1F (single isomer, unassigned) [I-37* (peak 2)] | 51 to 100 | 
5 | Cc1c(-c2ccncc2)n[nH]c1N1CCC(Cc2cnc(Cl)c(F)c2)C1=O (single isomer, unassigned) [I-41* (peak 2)] | 101 to 500 | 
6 | O=C1N(c2nc(-c3ccncc3)n[nH]2)CCC1(F)Cc1ccc(Cl)nc1 (single isomer, unassigned) [I-42* (peak 2)] | > 1000 | 
7 | Cc1c(-c2ccncc2)n[nH]c1N1CCC(Cc2ccc(Cl)nc2)C1=O (single isomer, unassigned) [I-48* (peak 2)] | 101 to 500 | 
8 | O=C1C(Cc2cnc(Cl)c(F)c2)CCN1c1cc(-c2ccncc2)n[nH]1 (single isomer, unassigned) [I-65* (peak 2)] | < 50 | 
9 | O=C1[C@H](Cc2ccc(Cl)c(F)c2)CCCN1c1cc(-c2ccnnc2)n[nH]1 [I-76*] | < 50 | 
10 | O=C1[C@H](Cc2ccc(Cl)nc2)CCCN1c1cc(-c2ccnnc2)n[nH]1 [I-77*] | < 50 | 
11 | O=C1[C@H](Cc2ccc(F)nc2)CCCN1c1cc(-c2ccnnc2)n[nH]1 [I-84*] | < 50 | 
12 | O=C1[C@H](Cc2ccc(F)cc2)CCCN1c1cc(-c2ccnnc2)n[nH]1 [I-85*] | < 50 | 

The remaining lines, values ahead:

Row | IC50 [1] [nM] | IC50 [2] [nM] | Compound
13 |  | 101 to 500 | N#Cc1cc(CC2CCCN(c3nc(-c4ccncc4)n[nH]3)C2=O)ccc1F (stereo not drawn) [Compound I-101]
14 |  | 51 to 100 | N#Cc1cc(CC2CCCN(c3cc(-c4ccncc4)n[nH]3)C2=O)ccc1Cl (stereo not drawn) [Compound I-102]
15 |  | 101 to 500 | N#Cc1cc(CC2CCCN(c3nc(-c4ccncc4)n[nH]3)C2=O)ccc1Cl (stereo not drawn) [Compound I-103]
16 |  | > 1000 | N#Cc1ccc(CC2CCN(c3nc(-c4ccncc4)n[nH]3)C2=O)cn1 (stereo not drawn) [Compound I-111]
17 |  | 101 to 500 | O=C1C(Cc2ccc(C(F)(F)F)nc2)CCN1c1cc(-c2ccncc2)n[nH]1 (stereo not drawn) [Compound I-112]
18 |  | 101 to 500 | N#Cc1ccc(CC2CCN(c3cc(-c4ccncc4)n[nH]3)C2=O)cc1 (stereo not drawn) [Compound I-114]
19 |  | 501 to 1000 | N#Cc1ccc(CC2CCN(c3nc(-c4ccncc4)n[nH]3)C2=O)cc1 (stereo not drawn) [Compound I-115]
20 |  | 101 to 500 | N#Cc1cc(CC2CCN(c3cc(-c4ccncc4)n[nH]3)C2=O)ccc1F (stereo not drawn) [Compound I-116]
21 |  | 101 to 500 | N#Cc1cc(CC2CCN(c3cc(-c4ccncc4)n[nH]3)C2=O)ccc1Cl (stereo not drawn) [Compound I-118]
